From patent US10988477B2 (Merck Patent GmbH, priority 2018, dated 2021)

Assays:
GCN2 kinase = GCN2 kinase (Homo sapiens, UniProt Q9P2K8); assay: GCN2 enzyme inhibition assay (Transcreener ADP2 fluorescence polarization); type: biochemical; conditions: Enzyme activity for compounds of Formula IV; Ki(app), 280 μM ATP, 25° C.
How it was run: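 ADP formation read by Transcreener FP after a 1 h, 25 °C kinase reaction containing 280 μM ATP, 200 μM (RS)7 substrate and 4 nM GCN2, pH 7.5 Tris buffer. Compounds (0–8 μM final) were added 10 min before ATP. Percent inhibition gave IC50 and apparent Ki via tight-binding fit.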

[1] = target: intracellular GCN2 (phosphorylation of the GCN2 substrate eIF2α) (Homo sapiens, UniProt Q9P2K8); assay: GCN2 cellular inhibition assay (AlphaScreen SureFire P-eIF2α Ser51, borrelidin-treated U2OS cells); type: cell-based; conditions: compounds of Formula IV; biomarker assay, phosphorylated eIF2α Ser51 in borrelidin-treated U2OS cells
How it was run: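 Read-out: AlphaScreen SureFire phospho-eIF2α (Ser51) signal in U2OS lysates. Cells get 4-fold compound dilutions (top 40 μM final) plus 10 μM borrelidin, 1 h, 37 °C. Percent inhibition is relative to borrelidin-alone controls.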

intracellular GCN2 (phosphorylation of the GCN2 substrate eIF2α), sequence (Q9P2K8 whole entry): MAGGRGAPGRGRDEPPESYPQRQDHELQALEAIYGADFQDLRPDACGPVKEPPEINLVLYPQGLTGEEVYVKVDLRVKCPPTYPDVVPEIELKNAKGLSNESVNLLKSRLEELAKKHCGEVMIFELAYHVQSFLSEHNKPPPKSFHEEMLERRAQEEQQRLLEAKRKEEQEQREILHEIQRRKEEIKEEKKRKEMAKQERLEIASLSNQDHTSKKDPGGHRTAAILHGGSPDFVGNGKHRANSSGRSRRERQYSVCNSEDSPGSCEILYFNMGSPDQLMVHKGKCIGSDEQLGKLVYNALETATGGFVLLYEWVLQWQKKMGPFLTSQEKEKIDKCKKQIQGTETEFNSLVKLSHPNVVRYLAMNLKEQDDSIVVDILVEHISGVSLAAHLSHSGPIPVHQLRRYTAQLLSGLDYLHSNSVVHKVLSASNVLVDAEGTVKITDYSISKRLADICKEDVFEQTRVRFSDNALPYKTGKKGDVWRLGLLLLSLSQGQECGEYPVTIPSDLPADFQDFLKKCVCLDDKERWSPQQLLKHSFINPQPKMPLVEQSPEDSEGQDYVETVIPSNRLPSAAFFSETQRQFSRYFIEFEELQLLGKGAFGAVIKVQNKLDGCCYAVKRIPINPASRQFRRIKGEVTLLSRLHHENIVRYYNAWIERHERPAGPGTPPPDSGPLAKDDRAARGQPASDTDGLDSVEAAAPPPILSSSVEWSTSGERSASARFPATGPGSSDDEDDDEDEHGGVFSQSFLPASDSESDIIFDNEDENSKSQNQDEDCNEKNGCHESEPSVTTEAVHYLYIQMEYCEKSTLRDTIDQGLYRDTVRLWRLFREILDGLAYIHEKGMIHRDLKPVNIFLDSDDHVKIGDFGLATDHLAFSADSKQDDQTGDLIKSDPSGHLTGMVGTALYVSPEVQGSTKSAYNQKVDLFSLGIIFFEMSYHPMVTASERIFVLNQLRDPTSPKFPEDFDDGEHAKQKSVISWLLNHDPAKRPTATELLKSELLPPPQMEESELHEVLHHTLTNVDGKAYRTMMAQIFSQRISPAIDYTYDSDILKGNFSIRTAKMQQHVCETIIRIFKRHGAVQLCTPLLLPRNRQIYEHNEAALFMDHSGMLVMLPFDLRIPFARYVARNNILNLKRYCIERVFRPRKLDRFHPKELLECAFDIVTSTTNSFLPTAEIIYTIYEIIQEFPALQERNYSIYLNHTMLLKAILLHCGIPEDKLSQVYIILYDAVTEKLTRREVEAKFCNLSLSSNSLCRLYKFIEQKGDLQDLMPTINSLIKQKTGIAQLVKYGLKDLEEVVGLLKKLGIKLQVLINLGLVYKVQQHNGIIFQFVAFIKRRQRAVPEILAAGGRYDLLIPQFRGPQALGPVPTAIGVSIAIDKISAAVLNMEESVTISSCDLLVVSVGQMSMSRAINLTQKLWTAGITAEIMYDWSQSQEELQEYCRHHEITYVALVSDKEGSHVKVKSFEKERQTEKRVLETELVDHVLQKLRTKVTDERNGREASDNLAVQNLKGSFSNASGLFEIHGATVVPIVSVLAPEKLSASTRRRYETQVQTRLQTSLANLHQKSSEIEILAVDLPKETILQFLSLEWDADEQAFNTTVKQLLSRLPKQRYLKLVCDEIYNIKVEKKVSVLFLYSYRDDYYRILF
GCN2 kinase, sequence (Q9P2K8 whole entry): as above

Cc1[nH]ncc1C1CCCN(c2ccnc(-c3cnc4cnc(C(F)(F)F)cn34)n2)C1 (single isomer, unassigned) [IV-471, 3-(4-(3-(5-Methyl-1H-pyrazol-4-yl)piperidin-1-yl)pyrimidin-2-yl)-6-(trifluoromethyl)imidazo[1,2-a]pyrazine]
Ki (GCN2 kinase): 10 to 100 nM | IC50 [1]: > 5000 nM

CC1CN(c2ccnc(-c3cnc4cnc(C(F)(F)F)cn34)n2)CC(c2cn[nH]c2C(F)(F)F)N1 (single isomer, unassigned) [IV-474, 3-(4-(3-Methyl-5-(5-(trifluoromethyl)-1H-pyrazol-4-yl)piperazin-1-yl)pyrimidin-2-yl)-6-(trifluoromethyl)imidazo[1,2-a]pyrazine]
Ki (GCN2 kinase): < 10 nM | IC50 [1]: < 500 nM

Fc1n[nH]cc1C1CCCN(c2ccnc(-c3cnc4cnc(C(F)(F)F)cn34)n2)C1 (single isomer, unassigned) [IV-491, 3-(4-(3-(3-Fluoro-1H-pyrazol-4-yl)piperidin-1-yl)pyrimidin-2-yl)-6-(trifluoromethyl)imidazo[1,2-a]pyrazine]
Ki (GCN2 kinase): < 10 nM | IC50 [1]: < 500 nM

Fc1n[nH]cc1C1CCCN(c2ccnc(-c3cnc4cnc(C(F)(F)F)cn34)n2)C1 (single isomer, unassigned) [IV-492, 3-(4-(3-(3-Fluoro-1H-pyrazol-4-yl)piperidin-1-yl)pyrimidin-2-yl)-6-(trifluoromethyl)imidazo[1,2-a]pyrazine]
Ki (GCN2 kinase): < 10 nM | IC50 [1]: < 500 nM

CC1C(C(N)=O)CCCN1c1ccnc(-c2cnc3cnc(C(F)(F)F)cn23)n1 (single isomer, unassigned) [IV-499, 2-Methyl-1-(2-(6-(trifluoromethyl)imidazo[1,2-a]pyrazin-3-yl)pyrimidin-4-yl)piperidine-3-carboxamide]
Ki (GCN2 kinase): < 10 nM | IC50 [1]: 500 to 5000 nM

CC1CC(C(N)=O)C(C)N(c2ccnc(-c3cnc4cnc(C(F)(F)F)cn34)n2)C1 (single isomer, unassigned) [IV-501, 2,5-Dimethyl-1-(2-(6-(trifluoromethyl)imidazo[1,2-a]pyrazin-3-yl)pyrimidin-4-yl)piperidine-3-carboxamide]
Ki (GCN2 kinase): < 10 nM | IC50 [1]: 500 to 5000 nM

CC1CN(c2ccnc(-c3cnc4cnc(C(F)(F)F)cn34)n2)C(C)C(c2cnc[nH]2)N1 (single isomer, unassigned) [IV-538, 3-(4-(3-(1H-Imidazol-5-yl)-2,5-dimethylpiperazin-1-yl)pyrimidin-2-yl)-6-(trifluoromethyl)imidazo[1,2-a]pyrazine]
Ki (GCN2 kinase): < 10 nM | IC50 [1]: 500 to 5000 nM

FC(F)(F)c1cn2c(-c3nccc(N4CCC(c5cn[nH]c5)C4)n3)cnc2cn1 (single isomer, unassigned) [IV-540, 3-(4-(3-(1H-Pyrazol-4-yl)pyrrolidin-1-yl)pyrimidin-2-yl)-6-(trifluoromethyl)imidazo[1,2-a]pyrazine]
Ki (GCN2 kinase): < 10 nM | IC50 [1]: 500 to 5000 nM

FC(F)(F)c1cn2c(-c3nccc(N4CCCC(c5cn[nH]c5)C4)n3)cnc2cn1 (single isomer, unassigned) [IV-545, 3-(4-(3-(1H-Pyrazol-4-yl)piperidin-1-yl)pyrimidin-2-yl)-6-(trifluoromethyl)imidazo[1,2-a]pyrazine]
Ki (GCN2 kinase): < 10 nM | IC50 [1]: 500 to 5000 nM

FC(F)(F)c1cn2c(-c3nccc(N4CCCC(c5cn[nH]c5)C4)n3)cnc2cn1 (single isomer, unassigned) [IV-546, 3-(4-(3-(1H-Pyrazol-4-yl)piperidin-1-yl)pyrimidin-2-yl)-6-(trifluoromethyl)imidazo[1,2-a]pyrazine]
Ki (GCN2 kinase): < 10 nM | IC50 [1]: < 500 nM

Fc1n[nH]cc1C1CCN(c2ccnc(-c3cnc4cnc(C(F)(F)F)cn34)n2)C1 (single isomer, unassigned) [IV-562, 3-(4-(3-(3-Fluoro-1H-pyrazol-4-yl)pyrrolidin-1-yl)pyrimidin-2-yl)-6-(trifluoromethyl)imidazo[1,2-a]pyrazine]
Ki (GCN2 kinase): < 10 nM | IC50 [1]: < 500 nM
